Assay results reported in paper PMC6839509, “Fluorescent probes towards selective cathepsin B detection and visualization in cancer cells and patient samples” (Chemical Science, 2019).

Tests used:
[1] = target: T1, human recombinant cathepsin B (Homo sapiens, UniProt P07858); test: Kinetic parameters for inhibition (kobs/I), pseudo-first order; assay type: biochemical; settings: inhibitor at least 5-fold excess over cathepsin, 100 μM ACC substrate, pH 5.5, 37 °C, average of at least triplicate, S.D. below 20%
T1 construct: made in house
Protocol: (§1) All kinetic experiments were performed using a CLARIOStar (BMG LABTECH) plate reader operating in fluorescence kinetic mode using 96-well plates (Corning®, Costar®). ACC-labeled fluorescent substrates were screened at 355 nm (excitation) and 460 nm (emission) wavelengths (gain 650). The cathepsin assay buffer was composed of 100 mM sodium acetate, 100 mM sodium chloride, 10 mM DTT, 1 mM EDTA, pH 5.5. All kinetic studies were performed at 37 °C.
(§2) The kinetic parameters of inhibition of three irreversible Cy5/Cy7 labeled ABPs were determined for cathepsins B, L, V, S and K, and the inhibition parameters of CA-074 and CA-074Me were determined for cathepsins B and L. The kobs/I were measured under pseudo-first order reaction conditions. Individual cathepsins were mixed with various concentrations of ABP (at least 5-fold excess over cathepsins) and 100 μM ACC fluorescent substrate. Experiments were repeated at least in triplicate, and the results are presented as an average (S.D. were below 20%).

[2] = target: T2, human recombinant cathepsin L (Homo sapiens, UniProt P07711); test: as above; assay type: biochemical; settings: inhibitor at least 5-fold excess over cathepsin, 100 μM ACC substrate, pH 5.5, 37 °C, average of at least triplicate, S.D. below 20%
T2 construct: with a 100 nM final concentration of each active cathepsin for 30 min; made in house
T2 sequence (P07711 114-333): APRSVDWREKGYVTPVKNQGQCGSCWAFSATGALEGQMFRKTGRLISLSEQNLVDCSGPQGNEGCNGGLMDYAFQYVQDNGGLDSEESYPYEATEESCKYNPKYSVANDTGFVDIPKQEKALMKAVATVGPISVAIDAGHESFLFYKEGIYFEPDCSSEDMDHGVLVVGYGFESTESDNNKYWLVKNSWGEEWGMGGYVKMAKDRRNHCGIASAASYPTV
Protocol: as §1, §2

[3] = target: T3, cathepsin B in human cancer cell lines (Homo sapiens, UniProt P07858); test: Detection of active cathepsin B in cancer cells using Cy5-labeled MP-CB-2 probe (SDS-PAGE, Western blot); assay type: cell-based; settings: A-431 cells; E-64d 25 μM; 1 μM MP-CB-2
T3 construct: we were able to label both cathepsin B active forms (single chain 29 kDa, and light chain 6 kDa); endogenous in cells; host or cells: human cancer cell lines (A-431, HCT-116, OVCAR-5, SK-OV-3, MDA-MB-231, U2-OS, PC-3, HeLa and others)
Protocol: 50 000 cells from fourteen adherent cancer cell lines were seeded into 12-well plates and allowed to attach overnight. In parallel, 50 000 cells from four non-adherent cancer cell lines were placed into 12-well plates and cultured overnight. The next day, MP-CB-2 ABP was added to the cells (1 μM final concentration) and incubated for various times (1, 4, 8, 24 hours). Next, cells were harvested, centrifuged at 500 × g for 5 min, cell pellets were washed with 1× DPBS, cells were centrifuged again at 500 × g for 5 min, and the supernatant was discarded. Finally, cell pellets were solubilized in 100 μL of 1× SDS/DTT and boiled for 5 min, cooled to room temperature and sonicated. Each sample (30 μL) was then subjected to SDS-PAGE analysis (4–12% Bis–Tris Plus 10-well gels, 200 V, 30 min), followed by protein transfer onto the membrane (0.2 μm nitrocellulose membrane, 10 V, 60 min). Ponceau S staining verified equal loading and transfer of proteins. Membranes were blocked in 2.5% BSA in TBS-T for 1 hour at room temperature. […] The images were then analyzed with the Image Studio software.
50 000 of selected cancer cells (A-431, HCT-116, OVCAR-5, SK-OV-3, MDA-MB-231, U2-OS, and PC-3) were seeded into 12-well plates and allowed to attach overnight. […] All images were analyzed with Image Studio software.

[4] = target: T4, cathepsin B in cancer cell lysates (Homo sapiens, UniProt P07858); test: Cathepsin B activity in cancer cell lysates with Ac-Cha-Leu-Glu(O-Bzl)-Arg-ACC substrate, with inhibitors; assay type: biochemical; settings: lysates of selected cell lines (HeLa, A431, U2-OS, HCT-116, SKOV-3, MDA-MB-231); inhibitor pre-incubated 15 min; 100 μM substrate
T4 construct: we were able to label both cathepsin B active forms (single chain 29 kDa, and light chain 6 kDa); endogenous in cells; host or cells: human cancer cell lines (A-431, HCT-116, OVCAR-5, SK-OV-3, MDA-MB-231, U2-OS, PC-3, HeLa and others)
Protocol: Cell pellets from 50 000 cells were re-suspended in cathepsin assay buffer containing 0.5% Triton X-100 for cell lysis. Cell lysis was performed on ice for 30 min. After this time, cells were centrifuged at max speed for 5 min, and the supernatant (supplemented with 10 mM DTT) was used for the kinetic assay. In each assay 100 μM of cathepsin B selective substrate Ac-Cha-Leu-Glu(O-Bzl)-Arg-ACC was used, and the reaction progress was monitored for 30 min. In the experiments with inhibitors, cell lysate was pre-incubated with inhibitor for 15 min, followed by substrate addition and kinetic readout. Each measurement was performed three times and the substrate hydrolysis rate (RFU/s) in control (no inhibitor) was set to 100%, and other values were adjusted accordingly.

| Structure (SMILES) | kobs/I Cat-B [1] | kobs/I Cat-L [2] | prevention of cathepsin B labeling by MP-CB-2 on pre-incubation with inhibitor [3] | inhibition of cathepsin B activity in cell lysates [4] |
| --- | --- | --- | --- | --- |
| CCCNC(=O)[C@H]1O[C@@H]1C(=O)N[C@H](C(=O)N1CCC[C@H]1C(=O)OC)[C@@H](C)CC [CA-074Me] | 92 M⁻¹ s⁻¹ | 152 M⁻¹ s⁻¹ | completely prevented | – |
| CCCNC(=O)[C@H]1O[C@@H]1C(=O)N[C@H](C(=O)N1CCC[C@H]1C(=O)O)[C@@H](C)CC [CA-074] | 42,000 M^-1s^-1 | n.i. | – | completely depleted its catalytic activity |
